Laboratory results: PubChem BioAssay (NCI)
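96-well plates; 48 h exposure; 5 concentrations. Endpoints by linear interpolation between flanking doses. Not reached: highest tested concentration assigned. Abbreviation: GI50, concentration required for 50% inhibition of growth. TGI: total growth inhibition.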

How the values were obtained:
Experiment in all cases: DTP human tumour cell line panel, 48 h
[1] = tested on: DU-145 prostate
[2] = tested on: NCI-H23 lung
[3] = tested on: HT29 colon
[4] = tested on: M14 melanoma
[5] = tested on: NCI/ADR-RES ovarian
[6] = tested on: MOLT-4 leukemia
[7] = tested on: TK-10 renal
[8] = tested on: OVCAR-8 ovarian
[9] = tested on: A549 NSCLC
[10] = tested on: SF-539 CNS
[11] = tested on: CAKI-1 renal
[12] = tested on: SK-MEL-5 melanoma
[13] = tested on: ACHN renal
[14] = tested on: T-47D breast
[15] = tested on: OVCAR-5 ovarian
[16] = tested on: HOP-62 NSCLC
[17] = tested on: UACC-257 melanoma
[18] = tested on: HCT-116 colon
[19] = tested on: RXF 393 renal
[20] = tested on: OVCAR-4 ovarian
[21] = tested on: HL-60(TB) leukemia
[22] = tested on: HOP-92 NSCLC
[23] = tested on: SK-OV-3 ovarian
[24] = tested on: PC-3 prostate
[25] = tested on: UACC-62 melanoma
[26] = tested on: EKVX NSCLC
[27] = tested on: SNB-19 CNS
[28] = tested on: HCC-2998 colon
[29] = tested on: SF-268 CNS
[30] = tested on: NCI-H226 lung
[31] = tested on: IGROV1 ovarian
[32] = tested on: SN12C renal
[33] = tested on: MALME-3M melanoma
[34] = tested on: HCT-15 colon
[35] = tested on: SK-MEL-28 melanoma
[36] = tested on: COLO 205 colon
[37] = tested on: NCI-H522 lung
[38] = tested on: LOX IMVI melanoma
[39] = tested on: SK-MEL-2 melanoma
[40] = tested on: SF-295 CNS
[41] = tested on: 786-0 renal
[42] = tested on: NCI-H460 lung
[43] = tested on: K-562 leukemia
[44] = tested on: MDA-MB-435
[45] = tested on: MCF7 breast
[46] = tested on: UO-31 renal
[47] = tested on: RPMI-8226 leukemia
[48] = tested on: MDA-MB-231 breast
[49] = tested on: OVCAR-3 ovarian
[50] = tested on: U251 CNS
[51] = tested on: BT-549 breast
[52] = tested on: SR leukemia
[53] = tested on: HS 578T breast
[54] = tested on: KM12 colon
[55] = tested on: SW-620 colon
[56] = tested on: CCRF-CEM leukemia

**Q.** What does the source list for O=S(=O)(Nc1ccc(I)c(Cl)c1)c1ccc(-c2cnc(C3CC3)o2)cc1?
**A.** GI50 [1]: 2.63 µM; TGI [1]: 11.8 µM; GI50 [2]: 2.68 µM; TGI [2]: 14 µM; GI50 [3]: 0.994 µM; TGI [3]: 5.8 µM; GI50 [4]: 0.969 µM; TGI [4]: 12.3 µM; GI50 [5]: 0.761 µM; TGI [5]: 6.82 µM; GI50 [6]: 1.39 µM; TGI [6]: 22.5 µM; GI50 [7]: 3.15 µM; TGI [7]: 17 µM; GI50 [8]: 3.08 µM; TGI [8]: 15.3 µM; GI50 [9]: 1.57 µM; TGI [9]: 12.7 µM; GI50 [10]: 1.26 µM; TGI [10]: 5.23 µM; GI50 [11]: 0.658 µM; TGI [11]: 14.9 µM; GI50 [12]: 2.7 µM; TGI [12]: 13.1 µM; GI50 [13]: 3.03 µM; TGI [13]: 16.8 µM; GI50 [14]: 1.52 µM; TGI [14]: 16.2 µM; GI50 [15]: 3.06 µM; TGI [15]: 13.3 µM; GI50 [16]: 1.59 µM; TGI [16]: 17.6 µM; GI50 [17]: 3.74 µM; TGI [17]: 21.7 µM; GI50 [18]: 1.13 µM; TGI [18]: 11.9 µM; GI50 [19]: 1.49 µM; TGI [19]: 7.55 µM; GI50 [20]: 3.3 µM; TGI [20]: 14.9 µM; GI50 [21]: 0.461 µM; TGI [21]: 3.93 µM; GI50 [22]: 0.434 µM; TGI [22]: 5.76 µM; GI50 [23]: 3.35 µM; TGI [23]: 17.6 µM; GI50 [24]: 1.12 µM; TGI [24]: 11.7 µM; GI50 [25]: 0.475 µM; TGI [25]: 12.8 µM; GI50 [26]: 2.85 µM; TGI [26]: 15.7 µM; GI50 [27]: 1.69 µM; TGI [27]: 17 µM; GI50 [28]: 2.37 µM; TGI [28]: 11.2 µM; GI50 [29]: 3.15 µM; TGI [29]: 18.9 µM; GI50 [30]: 3.97 µM; TGI [30]: 18.9 µM; GI50 [31]: 1.45 µM; TGI [31]: 16.6 µM; GI50 [32]: 3.17 µM; TGI [32]: 15.2 µM; GI50 [33]: 1.5 µM; TGI [33]: 23 µM; GI50 [34]: 0.582 µM; TGI [34]: 12.3 µM; GI50 [35]: 3.13 µM; TGI [35]: 19.9 µM; GI50 [36]: 3.04 µM; TGI [36]: 15.6 µM; GI50 [37]: 0.557 µM; TGI [37]: 7.49 µM; GI50 [38]: 2.64 µM; TGI [38]: 17.7 µM; GI50 [39]: 1.31 µM; TGI [39]: 16.7 µM; GI50 [40]: 0.362 µM; TGI [40]: 1.41 µM; GI50 [41]: 2.57 µM; TGI [41]: 17.2 µM; GI50 [42]: 1.5 µM; TGI [42]: 10.2 µM; GI50 [43]: 0.456 µM; TGI [43]: 27.4 µM; GI50 [44]: 0.259 µM; TGI [44]: 0.817 µM; GI50 [45]: 0.454 µM; TGI [45]: 12 µM; GI50 [46]: 2.71 µM; TGI [46]: 15.5 µM; GI50 [47]: 2.61 µM; TGI [47]: 23.1 µM; GI50 [48]: 3.96 µM; TGI [48]: 19.4 µM; GI50 [49]: 0.404 µM; TGI [49]: 2.89 µM; GI50 [50]: 1.53 µM; TGI [50]: 12.6 µM; GI50 [51]: 1.37 µM; TGI [51]: 16 µM; GI50 [52]: 0.317 µM; TGI [52]: 17.7 µM; GI50 [53]: 0.416 µM; TGI [53]: 3.01 µM; GI50 [54]: 0.888 µM; TGI [54]: 12.4 µM; GI50 [55]: 0.65 µM; TGI [55]: 13.4 µM; GI50 [56]: 0.877 µM; TGI [56]: 23.1 µM
